Format in all cases: cell-based
In experiment [1] the test system is Aβ42 generation from APP in CHO cells stably expressing hAPP-REPNL751. The experiment can be described thus: Aβ-lowering electrochemiluminescent (MSD ECL) assay of conditioned media, Aβ42. How it is done: (§1) The activity of compounds in lowering the generation of Aβ40 and Aβ42, the most abundant forms of beta amyloid, from APP (amyloid precursor protein) was measured in an electrochemiluminescent (ECL) assay of conditioned media from chinese hamster ovary (CHO) cells stably expressing the human amyloid precursor protein (APP) reporter construct, hAPP-REPNL751 [Sughir, R. et al.; J. Biolog. Chem. (1992) 267: 25602-25608]. Aβ peptides were secreted at high levels into cell culture media by cells carrying the human APP transgene; compounds were tested for their capacity to modulate this production. The Aβ peptide in the conditioned medium was quantitated by a sandwich immunoassay with the Meso Scale Discovery® (MSD®) ECL detection system. Cell metabolism was measured using MTS salt kit (containing a tetrazolium compound 3-(4,5-dimethylthiazol-2-yl)-5-(3-carboxymethoxyphenyl)-2-(4-sulfophenyl)-2H-tetrazolium, inner salt; MTS(a) which measures the mitochondrial activity of cells by the bioreduction of Owen's reagent). This assay consists of the following protocol: • 1. Aβ-Lowering Assay. • a. hAPP-REPNL751 CHO cells were seeded into 96 well plates and incubated until about 60-70% confluence. • b. Medium was removed, cells were washed, and fresh serum-free medium (Ultraculture) was put on cells. • c. Compounds were diluted and then added to the cell medium. • d. Cells were incubated, with compounds, for indicated times. • e. Streptavidin coated Meso Scale Discover (MSD) plates (MSD standard Multi-Array™ 96 plate, cat. #P11SA-1) were washed 3× with TTBS (Tris-buffered saline, the Tween® 20 reagent). • f. 20 μL conditioned medium were removed from the cells, and added to the TTBS prewashed MSD® plates. • g. Standard curve dilutions of synthetic Aβ40 and Aβ42 were prepared and added to the MSD® plates. • h. A reagent mix was prepared in 1% MSD® Blocker A (appropriate concentration of biotinylated 6E10 antibody, detection antibodies to Aβ40, Aβ42, and MSD ruthinylated tag antibody). • i. 20 μL reagent mix was distributed to sample plate. • j. Plates were incubated with shaking overnight at 4° C. • k. Plates were washed 3× with TTBS. • l. 150 μL read buffer was added per well (MSD Read Buffer T, cat#R92TC-2, made 1× with distilled water). • m. Plates were read in MSD plate reader within 2 hours. • 2. MTS Assay: • a. Cells were seeded into 96 well plates and incubated until about 60-70% confluence. • b. Medium was removed, cells were washed, and fresh serum-free medium (Ultraculture) was put on cells. • c. Compounds were diluted and then added to the cell medium. • d. Cells were incubated, with compounds, for indicated times. • e. Using a robot, conditioned medium was removed from the cells, and transferred to a TTBS prewashed MSD plate. • f. Cells were washed 2× in phosphate buffered saline (PBS) and an MTS solution was plated onto the cells. After 1 hour, they were read on a plate reader at 560 nm to determine metabolic activity. • 3. Analysis of Results. • Assays were accepted or rejected based upon specific performance criteria, including regression coefficient of standard curve, adequate signal to noise ratio, sample signals lying within the range of the standard curve, etc. The specific parameters were established for each tissue type prior to performing an assay, and were included in the full analytical procedure. • Plate data from both assays (MTS and MSD ELISA) were transferred into a Microsoft Excel® spreadsheet to determine the toxicity, and inhibition caused by the compounds. Standard curves of Aβ were generated using LSW toolbar Hill slope model 42, with 1/y weighting (general sigmoidal curve with Hill slope, a to d; y=(a−d)/(1+(x/c)̂b)+d). […]

For experiment [2], the system named is Aβ40 generation from APP in CHO cells stably expressing hAPP-REPNL751. The experiment can be described thus: Aβ-lowering electrochemiluminescent (MSD ECL) assay of conditioned media, Aβ40. As for the experimental part:
as §1

For experiment [3], the system named is S3 (γ-secretase like) processing of Notch (Mouse Notch1 with deleted extracellular domain). Description: Whole cell functional Notch assay (HES1-SEAP reporter, P8H6 CHO-K1 cells). Conditions: Notch assay reference compounds, read-out: EC50 (Notch induced SEAP levels). An excerpt:
The activity of compounds in cleaving Notch can be measured in a whole cell functional Notch assay. This is an assay to determine the effects of compounds on the S3 (γ-secretase like) processing of Notch. […] SEAP transactivation is then detected by luminescent assay. The assay consists of the following protocol: • 1. Materials and Methods: • (a) Materials: The P8H6 inducible stable cell line was derived from T-REx™ CHO-K1, stably expressing Tet repressor, Notch (pZX1) and HES1-SEAP (pZX2) reporter constructs. A Wallace 1450® Victor Luminescence Counter is used to measure luminescent signal. […] For vehicle samples, the same volume of 0.2% DMSO/25 mM HEPES buffer was added. • Cells were incubated at 37° C., 5% CO2 for 48 hours. • SEAP levels in the conditioned media were assessed using the Clontech GreatEscAPe™ SEAP Chemiluminescence detection kit according to the manufacturer's instruction. […] After cooling, assay buffer was added, and the sample was incubated with the CSPD® substrate. • Luminescence was measured in a Wallace 1450 Victor luminescence counter. • 2. […] EC50 was calculated by […] using sigmoidal inhibition from B0 to nsb model (model 59). […] Inhibition of Notch processing was measured using the stable transfection reporter assay. […]

Where [4] appears, read: electrochemiluminescent assay, hAPP-REPNL751 CHO cells, read-out: C42: EC50 for inhibition of Aβ42.
Where [5] appears, read: electrochemiluminescent assay, hAPP-REPNL751 CHO cells, read-out: C40: EC50 for inhibition of Aβ40.
Setting [6] is: CHO, reference standards of the beta amyloid assay, read-out: EC50αβ42.

Structures can show the parent of a compound that is named as a salt. Where two headings read alike, the source gives them in different places.

For `O=S(=O)(O)OC[C@@H](NS(=O)(=O)c1ccc(Cl)s1)[C@@H](c1cc(F)cc(F)c1)C(F)(F)F` [Example 6, (2S,3R)-2-{[(5-chloro-2-thienyl)sulfonyl]amino}-3-(3,5-difluorophenyl)-4,4,4-trifluorobutyl Hydrogen Sulfate, Sodium Salt], the values for the EC50 in experiment [1] (setting [4]) and in experiment [2] (setting [5]) were 1290 nM and 1740 nM, respectively.
Take `O=S(=O)(O)OC[C@@H](NS(=O)(=O)c1ccc(Cl)cc1)C(C(F)(F)F)C(F)(F)F` [Example 5]: the EC50 in experiment [1] (CHO, read-out: C42: EC50 for inhibition of Aβ42) was found to be 4150 nM; in experiment [2] (CHO, read-out: C40: EC50 for inhibition of Aβ40) it was 4030 nM.
As to `O=S(=O)(O)OC[C@@H](NS(=O)(=O)c1ccc(Cl)s1)C(C(F)(F)F)C(F)(F)F` [Example 1, (2S)-2-{[(5-chloro-2-thienyl)sulfonyl]amino}-4,4,4-trifluoro-3-(trifluoromethyl)butyl Hydrogen Sulfate, Sodium Salt], the figures for the EC50 in experiment [1] (setting [4]) and in experiment [2] (setting [5]) were 445 nM and 447 nM, respectively.
For the compound `CC[C@H](CC(F)(F)F)[C@@H](CO)NS(=O)(=O)c1ccc(Cl)s1` [5-chloro-N-[(1S,2R)-2-ethyl-4,4,4-trifluoro-1-(hydroxymethyl)butyl]thiophene-2-sulfonamide, reference compound], the EC50 was found to be 5 nM in experiment [1] (setting [6]) and 6 nM in experiment [2] (CHO, reference standards of the beta amyloid assay, read-out: EC50αβ40).
With `CCC(CC)[C@@H](COS(=O)(=O)O)NS(=O)(=O)c1ccc(Cl)s1` [Example 3, (2S)-2-{[(5-chloro-2-thienyl)sulfonyl]amino}-3-ethylpentyl Hydrogen Sulfate, Sodium Salt], the EC50 in experiment [1] (setting [4]) came out at 234 nM; in experiment [2] (setting [5]) it was 243 nM.
For `CC[C@H](C)[C@@H](COS(=O)(=O)O)NS(=O)(=O)c1ccc(Cl)cc1` [Example 4, (2S,3S)-2-{[(4-chlorophenyl)sulfonyl]amino}-3-methylpentyl Hydrogen Sulfate, Sodium Salt], the EC50 in experiment [1] (setting [4]) and in experiment [2] (setting [5]) was 15000 nM in each case.
Consider `CC[C@@H](C)[C@@H](COS(=O)(=O)O)NS(=O)(=O)c1ccc(Cl)s1` [Example 2, (2S,3R)-2-{[(5-chloro-2-thienyl)sulfonyl]amino}-3-methylpentyl Hydrogen Sulfate, Sodium Salt], for which the EC50 in experiment [1] (setting [4]) and in experiment [2] (setting [5]) was 15000 nM each time.
`CC(C)[C@H](O)C(=O)N[C@@H](C)C(=O)N[C@@H]1C(=O)N(C)CCc2ccccc21` [(2S)-2-hydroxy-3-methyl-N-((1S)-1-methyl-2-{[(1S)-3-methyl-2-oxo-2,3,4,5-tetrahydro-1H-3-benzazepin-1-yl]amino}-2-oxoethyl)butanamide, reference compound]: the values for the EC50 in experiment [1] (setting [6]) and in experiment [3] were 79 nM and 68 nM, respectively.
